Measurements taken from US7794929B2, “Genomic screen for epigenetically silenced genes associated with cancer” (The Johns Hopkins University School of Medicine, priority 2002, dated 2010).

Columns and labels:
RKO cells = assay: Subtraction microarray and semi-quantitative RT-PCR of gene expression after DAC and/or TSA treatment; assay type: cell-based, human; conditions: for expression of Group 2 genes (n=23) / expression of Group 1 genes (n=51): RKO cells, semi-quantitative RT-PCR; for expression of Group 2 genes (n=23): DAC alone or TSA alone; for expression of Group 1 genes (n=51): low dose DAC alone, TSA alone or combined
Description: RKO cells were treated with 5-aza-2′-deoxycytidine (DAC; Sigma) and/or trichostatin A (TSA; Wako) as described (Cameron et al., supra, 1999). Briefly, the treatment consisted of DAC (200 nM) for 48 hr, with drug and medium replaced at the 24 hr time point after beginning of treatment, followed by addition of TSA to a final concentration of 300 nM (from a 1.5 mM ethanol dissolved stock) and incubation for an additional 24 hr. Cells also were treated with DAC alone or TSA alone, or mock treated, using the same volumes of PBS and/or ethanol, and/or same amount of the drugs. Some colorectal cancer (CRC) cell lines also were treated for RT-PCR analysis to assess more robust levels of gene expression; treatment was with 5 μM DAC for 72 hr, with drug and medium being replaced every 24 hr. Total RNA was extracted using the TRIZOL Reagent (Gibco/BRL), and used for microarray analysis, cDNA subtraction and RT-PCR. Prior to cDNA subtraction, poly A RNA was isolated from total RNA using the MESSAGE MAKER Reagent Assembly kit (Gibco/BRL). cDNA subtraction was performed with the combination treated RKO cell line as the tester, and mock treated cells as the driver by using the PCR-Select™ cDNA subtraction kit (Clontech). Synthesized cDNA was digested with Rsa I, and tester cDNA was ligated to adaptors included in the kit. After hybridization, PCR amplification of the subtracted cDNA was performed using the ADVANTAGE cDNA PCR kit (Clontech). Microarray analysis was performed using the Mammalian GeneFilters Microarrays™ system (Research Genetics). Filters were generated for approximately 5,000 of the genes analyzed in the Johns Hopkins Comprehensive microarray core, and filters for an additional 5,000 genes were purchased (Human GeneFilters Microarrays™ Release II; Research Genetics). A total of 10,814 genes and ESTs were analyzed. Hybridization of the filters was performed according to manufacturer's recommendation. Briefly, 5 μg of total RNA was reverse transcribed and labeled using oligo (dT)12-18 primer and ^32dCTP with SUPERSCRIPT II reverse transcriptase (Gibco/BRL). Hybridization of the filters was allowed to proceed for 12 to 18 hr. Data was analyzed using the PSCAN program (National Institutes of Health). For subtraction-microarray analysis, the 2nd PCR product from cDNA subtraction was labeled with ^33P using the MULTIPRIME DNA labeling system (Amersham). Hybridization and data analysis were performed as described above. Microarray analysis was repeated independently at least three times for each condition, and results for probing the arrays with cDNA for total RNA from mock treated cells were compared to those for hybridizations with subtraction PCR products. DNase I (Ambion) treated total RNA (2 μg) was reverse transcribed for single stranded cDNA using oligo (dT)12-18 primer with SUPERSCRIPT II reverse transcriptase (Gibco/BRL). PCR reactions were performed in a volume of 50 μl containing 1×PCR buffer (Gibco/BRL), 1.5 mM of MgCl2, 0.3 mM of dNTP, 0.25 μM of each primer and 2 U of Taq polymerase (Gibco/BRL). One hundred ng of cDNA was used for PCR amplification, and all of the genes were amplified with multiple cycle numbers (20 to 35 cycles) to determine appropriate conditions to obtain semi-quantitative differences in their expression levels. GAPDH PCR (25 and 28 cycles) was performed to ensure cDNA quality and loading accuracy. Amplification primer pairs were as shown in Table 4 (SEQ ID NOS: 149 to 296.

CRC cell lines = assay: RT-PCR expression analysis of methylation silenced genes in CRC cell lines after DAC treatment; assay type: cell-based, human
Description: Briefly, the treatment consisted of DAC (200 nM) for 48 hr, with drug and medium replaced at the 24 hr time point after beginning of treatment, followed by addition of TSA to a final concentration of 300 nM (from a 1.5 mM ethanol dissolved stock) and incubation for an additional 24 hr. Cells also were treated with DAC alone or TSA alone, or mock treated, using the same volumes of PBS and/or ethanol, and/or same amount of the drugs. Some colorectal cancer (CRC) cell lines also were treated for RT-PCR analysis to assess more robust levels of gene expression; treatment was with 5 μM DAC for 72 hr, with drug and medium being replaced every 24 hr. Total RNA was extracted using the TRIZOL Reagent (Gibco/BRL), and used for microarray analysis, cDNA subtraction and RT-PCR. DNase I (Ambion) treated total RNA (2 μg) was reverse transcribed for single stranded cDNA using oligo (dT)12-18 primer with [sequence] II reverse transcriptase (Gibco/BRL). PCR reactions were performed in a volume of 50 μl containing 1×PCR buffer (Gibco/BRL), 1.5 mM of MgCl2, 0.3 mM of dNTP, 0.25 μM of each primer and 2 U of Taq polymerase (Gibco/BRL). One hundred ng of cDNA was used for PCR amplification, and all of the genes were amplified with multiple cycle numbers (20 to 35 cycles) to determine appropriate conditions to obtain semi-quantitative differences in their expression levels. GAPDH PCR (25 and 28 cycles) was performed to ensure cDNA quality and loading accuracy. […] For RT-PCR, SFRP2 sense and antisense primers were designed for exons 2 and 3, respectively; SFRP4 sense and antisense primers were designed for exons 2 and 5, respectively; and SFRP5 sense and antisense primers were designed for exons 2 and 3, respectively.

[1] = colorectal cancer cells and/or gastric cancer cells

SMILES | expression of Group 2 genes (n=23) (RKO cells) | expression of Group 1 genes (n=51) (RKO cells) | basal level of expression of HOXA1, GRO3 and DLX7 (RKO cells; [1]) | expression of POR1, MBNL, TRADD, PDIP, RAD23B, RPL13, GNAI2, PPP1R21A, FPGT and TRIM32 (RKO cells; [1]) | expression of PTGS2, CDKN2A, TIMP3, S100A10, SFRP1, CXX1, SEZZ6L, KIAA0786, TIMP2, PCDH8, FOLH1 and SNRPN (no detectable basal expression) (RKO cells; [1]) | expression of FOLH1 and PCDH8 (silent genes) (CRC cell lines; CRC cell lines) | basal expression of the hypermethylated SFRP genes (the three other than SFRP1) (CRC cell lines; CRC cell lines, DAC treatment) | KIAA0786 expression (not basally expressed despite a lack of methylation) (CRC cell lines; SW480 cells) | expression of Group 1a genes lacking basal expression in the methylated cell lines (CRC cell lines; series of 8 CRC cell lines, incubation with DAC)
CC(/C=C/C(=O)NO)=C\[C@@H](C)C(=O)c1ccc(N(C)C)cc1 [TSA, trichostatin A] | up-regulation | no change in expression | not | up-regulated |  |  |  |  | 
Nc1ncn([C@H]2C[C@H](O)[C@@H](CO)O2)c(=O)n1 [DAC, 5-aza-2′-deoxycytidine] | variable initial expression or response | minimal increase in expression | increased | vary among genes | re-expressed | re-expression | restored | reactivated | restored
